Literature values as cited in patent US7947313B2, “Compositions for diabetes treatment and prophylaxis” (Ayurvedic-Life International, LLC, priority 2003, dated 2011).

Columns and labels:
[1] = Fletcher et al. 1999
[2] = test system: rat chorda tympani nerve; details: stimuli such as glucose, sucrose, glycine and saccharine; Fletcher et al. 1999

**Q.** For gurmarin, which effect in humans [1] is on record?
**A.** no apparent effect

**Q.** And the “response of the rat chorda tympani nerve to sweet taste stimuli” value [2]?
**A.** suppressing the response
